Assay results: patent US20240207236A1, “COMPOUND FOR PREVENTING OR TREATING DIABETES” (ONCOCROSS CO., LTD., priority 2021, published 2024)

Key:
Format in all cases: in vivo, mice (C57BL/6)
[1] = test system: animal model of insulin-resistant diabetes; assay: Blood sugar, tail vein blood, blood sugar meter, 4 h fasting; design: blood sugar, Mean: unit not given here
Experimental: (§1) STZ (Sigma-aldrich, S0130, 40 mg/kg b.w., in 0.1 M citrate buffer pH 4.5) was intraperitoneally administered to 9-week-old male mice (C57BL/6) once/1 day for 5 days to perform a first disease induction. After 7 weeks of the first induction, a second induction was performed using the same method as the first induction. For 5 days of an STZ administration period for the first induction, 10% sucrose was administered as drinking water. In addition, after 14 days of the second administration, blood sugar was confirmed to confirm the induction rate, and the induced animals were separated into groups. Experimental substances (R)-4-{(R)-1-[7-(3,4,5-trimethoxy-phenyl)-[1,6] naphthyridine-5-yloxy]-ethyl}pyrrolidine-2-one (BI-1002494) and cromolyn (OC-101) were administered orally into the stomach at 10 mL/kg using an oral administration syringe (sonde) before 16:00 daily for 12 weeks at a frequency of 7 days/week at doses shown in Table 1 below, respectively, and dexamethasone was orally administered as a positive control substance.
Before disease induction, excluding week 9 of administration of experimental substances to mice in each group of Example 1 above, after 2 weeks after the first induction (based on a first administration date), and after 6 weeks and 2 weeks of the second induction (based on the first administration date), blood was collected from the tail vein and blood sugar was measured using a blood sugar meter (Accu-Check, Roche), and fasting was performed for 4 hours from 9:30 a.m. to 1:30 p.m.

[2] = Drinking water intake of mice in STZ-induced insulin-resistant diabetes model; design: unit not given here
Experimental: as §1

[3] = test system: animal model of insulin-resistant diabetes; assay: Histopathological change of liver, kidney and pancreas (H&E); conditions: count in group of 10 animals
Experimental: as §1
At the end of the observation period, the mice in each group of Example 1 were confirmed to be dead, and the liver, kidney, and pancreas were extracted and fixed with 10% neutral buffered formalin (NBF) in at least 20 times the tissue volume. The fixed tissue was sectioned to a thickness of approximately 4 mm and then produced into a paraffin block through general tissue processing and embedding processes. Thereafter, the tissue was sectioned to a thickness of 4 μm using a rotary microtome, and then H&E staining was performed, and histopathological changes were observed.

[4] = Body weight of mice in STZ-induced insulin-resistant diabetes model
Experimental: as §1

[5] = test system: animal model of insulin-resistant diabetes; assay: Blood biochemistry, automated analyzer, at end of observation
Experimental: as §1
(§2) After the observation period for mice of each group in Example 1 was terminated, all surviving animals were fasted in the same manner as when measuring blood sugar, and then anesthetized by inhaling isoflurane, and blood was collected from the abdominal vena cava through laparotomy. After the blood collection was completed, the veins and arteries were cut under anesthesia and exsanguinated. The collected blood was left at room temperature for 30 minutes or more and then centrifuged at 3,000 rpm for 20 minutes. Thereafter, glucose, blood urea nitrogen (BUN), and creatinine were analyzed using an automated blood biochemistry analyzer (Hitachi 3100, Hitachi Co. Ltd., Japan). Indoxyl sulfate (a substance that was mainly produced in the intestines to cause kidney damage, and a substance that caused end-stage renal failure by advancing kidney function damage in patients with renal failure during hemodialysis) was analyzed using LC MS/MS. In addition, blood insulin was analyzed according to a method represented by a commercial Mouse Insulin ELISA KIT (#AKRIN-011T, Sibayagi Co. Ltd., Japan).

[6] = test system: animal model of insulin-resistant diabetes; assay: Blood insulin (Mouse Insulin ELISA) and HOMA-IR; conditions: 50 mg/kg
Experimental: as §1, §2

[7] = test system: animal model of insulin-resistant diabetes; assay: Blood indoxyl sulfate by LC MS/MS; conditions: 50 mg/kg/day oral, 12 weeks
Experimental: as §1, §2

[8] = Feed intake of mice in STZ-induced insulin-resistant diabetes model; design: feed intake: unit not given here; conditions: 50 mg/kg/day oral
Experimental: as §1

[9] = 50 mg/kg/day oral, 12 weeks, blood

C[C@@H]1C[C@H]2[C@@H]3CCC4=CC(=O)C=C[C@]4(C)[C@@]3(F)[C@@H](O)C[C@]2(C)[C@@]1(O)C(=O)CO [Dexamethasone, reference compound]
blood sugar, Mean ([1]; 2 mg/kg/day oral, value column 2 of 6, head prints only weeks 0, 4, 8, 10): 309.1
blood sugar, Mean ([1]; 2 mg/kg/day oral, value column 3 of 6, head prints only weeks 0, 4, 8, 10): 329.2
blood sugar, Mean ([1]; 2 mg/kg/day oral, value column 4 of 6, head prints only weeks 0, 4, 8, 10): 336.9
blood sugar, Mean ([1]; 2 mg/kg/day oral, value column 6 of 6, head prints only weeks 0, 4, 8, 10): 331.4
blood sugar, Mean ([1]; 2 mg/kg/day oral, week 0): 307.1
drinking water intake, Mean ([2]; 2 mg/kg/day oral, week 0): 7.07
drinking water intake, Mean ([2]; 2 mg/kg/day oral, week 1): 7.73
drinking water intake, Mean ([2]; 2 mg/kg/day oral, week 2): 7.05
drinking water intake, Mean ([2]; 2 mg/kg/day oral, week 3): 7.89
drinking water intake, Mean ([2]; 2 mg/kg/day oral, week 4): 7.69
drinking water intake, Mean ([2]; 2 mg/kg/day oral, week 5): 7.10
drinking water intake, Mean ([2]; 2 mg/kg/day oral, week 6): 7.35
drinking water intake, Mean ([2]; 2 mg/kg/day oral, week 7): 7.18
drinking water intake, Mean ([2]; 2 mg/kg/day oral, week 8): 7.83
drinking water intake, Mean ([2]; 2 mg/kg/day oral, week 9): 7.45
drinking water intake, Mean ([2]; 2 mg/kg/day oral, week 10): 7.19
Kidney Medullar apoptosis ([3]; 2 mg/kg (G3)): 1
Kidney Medullar mineralization ([3]; 2 mg/kg (G3)): 2
Kidney NHL ([3]; 2 mg/kg (G3)): 6
Kidney bowman's capsule hyperplasia ([3]; 2 mg/kg (G3)): 2
Kidney pappillary mineralization ([3]; 2 mg/kg (G3)): 0
Liver Apoptosis ([3]; 2 mg/kg (G3)): 4
Liver Cytoplasmic glycogen ([3]; 2 mg/kg (G3)): 0
Liver Eosinophlic focus of cellular alteration ([3]; 2 mg/kg (G3)): 3
Liver Mononuclear cell infiltrate ([3]; 2 mg/kg (G3)): 0
Liver NHL ([3]; 2 mg/kg (G3)): 5
Pancrease Apoptosis ([3]; 2 mg/kg (G3)): 0
Pancrease NHL ([3]; 2 mg/kg (G3)): 8
Pancrease islet degeneration ([3]; 2 mg/kg (G3)): 1
Pancrease islet hypertrophy ([3]; 2 mg/kg (G3)): 0
Pancrease islet, mononuclear cell infillitrate ([3]; 2 mg/kg (G3)): 1
body weight, Mean ([4]; 2 mg/kg/day oral, week 0): 24 g
body weight, Mean ([4]; 2 mg/kg/day oral, week 1): 23.5 g
body weight, Mean ([4]; 2 mg/kg/day oral, week 2): 23.6 g
body weight, Mean ([4]; 2 mg/kg/day oral, week 3): 23.6 g
body weight, Mean ([4]; 2 mg/kg/day oral, week 4): 23.6 g
body weight, Mean ([4]; 2 mg/kg/day oral, week 5): 23.7 g
body weight, Mean ([4]; 2 mg/kg/day oral, week 6): 23.6 g
body weight, Mean ([4]; 2 mg/kg/day oral, week 7): 23.8 g
body weight, Mean ([4]; 2 mg/kg/day oral, week 9): 23.3 g
T-CHO, Mean ([5]; 2 mg/kg/day oral, 12 weeks, blood): 139.0 dL⁻¹

O=C(O)c1cc(=O)c2c(OCC(O)COc3cccc4oc(C(=O)O)cc(=O)c34)cccc2o1 [OC-101, cromolyn, reference compound]
blood sugar, Mean ([1]; 50 mg/kg/day oral, value column 2 of 6, head prints only weeks 0, 4, 8, 10): 336.8
blood sugar, Mean ([1]; 50 mg/kg/day oral, week 0): 200.9
HOMA-IR compared with the disease control group [6]: decreased statistically significantly
Indoxyl sulfate, Mean [7]: 0.8 µg/mL
drinking water intake, Mean ([2]; 50 mg/kg/day oral, week 0): 6.78
drinking water intake, Mean ([2]; 50 mg/kg/day oral, week 1): 6.11
drinking water intake, Mean ([2]; 50 mg/kg/day oral, week 2): 7.68
drinking water intake, Mean ([2]; 50 mg/kg/day oral, week 3): 6.99
drinking water intake, Mean ([2]; 50 mg/kg/day oral, week 4): 7.23
drinking water intake, Mean ([2]; 50 mg/kg/day oral, week 5): 6.76
drinking water intake, Mean ([2]; 50 mg/kg/day oral, week 6): 7.60
drinking water intake, Mean ([2]; 50 mg/kg/day oral, week 7): 7.06
drinking water intake, Mean ([2]; 50 mg/kg/day oral, week 8): 7.17
drinking water intake, Mean ([2]; 50 mg/kg/day oral, week 9): 7.09
drinking water intake, Mean ([2]; 50 mg/kg/day oral, week 10): 6.76
Kidney Medullar apoptosis ([3]; 50 mg/kg (G6, G7)): 0
Kidney Medullar mineralization ([3]; 50 mg/kg (G6, G7)): 1
Kidney NHL ([3]; 50 mg/kg (G6, G7)): 8
Kidney bowman's capsule hyperplasia ([3]; 50 mg/kg (G6, G7)): 1
Kidney pappillary mineralization ([3]; 50 mg/kg (G6, G7)): 0
Liver Apoptosis ([3]; 50 mg/kg (G6, G7)): 2
Liver Cytoplasmic glycogen ([3]; 50 mg/kg (G6, G7)): 0
Liver Eosinophlic focus of cellular alteration ([3]; 50 mg/kg (G6, G7)): 1
Liver Mononuclear cell infiltrate ([3]; 50 mg/kg (G6, G7)): 3
Liver NHL ([3]; 50 mg/kg (G6, G7)): 5
Pancrease Apoptosis ([3]; 50 mg/kg (G6, G7)): 0
Pancrease NHL ([3]; 50 mg/kg (G6, G7)): 6
Pancrease islet degeneration ([3]; 50 mg/kg (G6, G7)): 2
Pancrease islet hypertrophy ([3]; 50 mg/kg (G6, G7)): 2
Pancrease islet, mononuclear cell infillitrate ([3]; 50 mg/kg (G6, G7)): 1
body weight, Mean ([4]; 50 mg/kg/day oral, week 0): 23.9 g
body weight, Mean ([4]; 50 mg/kg/day oral, week 1): 23.4 g
body weight, Mean ([4]; 50 mg/kg/day oral, week 2): 23.5 g
body weight, Mean ([4]; 50 mg/kg/day oral, week 3): 23.3 g
body weight, Mean ([4]; 50 mg/kg/day oral, week 4): 23.5 g
body weight, Mean ([4]; 50 mg/kg/day oral, week 5): 23.4 g
body weight, Mean ([4]; 50 mg/kg/day oral, week 6): 23.5 g
body weight, Mean ([4]; 50 mg/kg/day oral, week 7): 23.4 g
body weight, Mean ([4]; 50 mg/kg/day oral, week 8): 23.2 g
body weight, Mean ([4]; 50 mg/kg/day oral, week 9): 23 g
feed intake ([8]; week 3): 5.47
feed intake ([8]; week 4): 4.26
feed intake ([8]; week 6): 4.29
feed intake ([8]; week 9): 4.51
GLU compared to the disease control group ([5]; 50 mg/kg): decreased statistically significantly
ALT, Mean [5, 9]: 31.3 L⁻¹
AST, Mean [5, 9]: 34.0 L⁻¹
T-CHO, Mean [5, 9]: 24.2 dL⁻¹
